The source of these data is US12358966B2, “Inducible caspases and methods for use” (Poseida Therapeutics, Inc., priority 2016, dated 2025).

Series [1] relates to cells. Briefly: Amount of AP1903 needed in vitro for effective signaling of cells. Type of series: cell-based. The conditions noted are these: calculated with 1600 Da MW. The method, then:
The fixed dose of AP1903 (Rimiducid) for injection used, for example, may be 0.4 mg/kg intravenously infused over 2 hours. The amount of AP1903 (Rimiducid) needed in vitro for effective signaling of cells is 10-100 nM (1600 Da MW). This equates to 16-160 μg/L or […]. Doses up to 1 mg/kg were well-tolerated in the Phase I study of AP1903 (Rimiducid) described above. Therefore, 0.4 mg/kg may be a safe and effective dose of AP1903 (Rimiducid) for this Phase I study in combination with the therapeutic cells.

In another series the test system is Human pan T-cells. The series is described as follows: iC9 safety switch test: viability of modified T cells by flow cytometry with 7-AAD after incubation with AP1903. The format is cell-based. The note with it: 24 hours incubation, 0-1000 nM tested. The source says: Human pan T-cells were nucleofected using an Amaxa 4D nucleofector with one of four piggyBac transposons. Modified T cells receiving the “mock” condition were nucleofected with an empty piggyBac transposon. Modified T cells received either a piggyBac […] containing a therapeutic agent alone (a sequence encoding a CARTyrin) or a piggyBac […] containing an integrated iC9 sequence and a therapeutic agent (a sequence encoding a CARTyrin).
To test the iC9 safety switch, each of the four modified T cells were incubated for 24 hours with 0, 0.1 nM, 1 nM, 10 nM, 100 nM or 1000 nM AP1903 (an induction agent for […], also known as Rimiducid). Viability was assessed by flow cytometry using 7-aminoactinomycin D (7-AAD), a fluorescent intercalator, as a marker for cells undergoing apoptosis.
Cell viability was assessed at day 12 (see FIG. 2). […] Moreover, cell viability was assessed at day 19 (see FIG. 3). […]
A quantification of the aggregated results was performed and is provided in FIG. 4, showing the significant impact of the iC9 safety switch on the percent cell viability as a function of the concentration of the induction agent (AP1903, also known as Rimiducid) of the iC9 switch for each modified cell type at either day 12 (FIG. 2 and left graph) or day 19 (FIG. 3 and right graph).
(In general: In flow cytometry, cells or beads pass a laser one at a time.)

The subject of series [2] is cells comprising P-BCMA-101. Briefly: In vivo killing of cells comprising P-BCMA-101 via iC9 safety switch in NSG mice (huCD45+ cells in blood, spleen, bone marrow). The note with it: AP1903 0.005-5 mg/kg on day 12, analysis 24 hours later. As for the experimental part: FIG. 5 is a diagram showing a study timeline and outline for an in vivo study. NSG mice were IV injected with MM.1S/luciferase^+ cells, staged at day 8, injected with T cells on day 9, and treated with AP1903 (Rimiducid) on day 12 at the indicated doses. 24 hours later, mice were euthanized and blood, spleen, and bone marrow cells were collected and stained for the presence of huCD45^+ cells.
Blood, spleen, and bone marrow cells were analyzed by flow cytometry for the presence of huCD45^+ cells. The relative viability was determined by: ((#of huCD45 cells/ #of msCD45 cells)/(Average of huCD45/msCD45 in no treatment group))*100% per 1,500 bead events for each sample. Each data point represents a different mouse. On the x-axis is plotted percent Relative CAR-T Viability from 0 to 175 in increments of 25. […]
NSG mice were IV injected with MM.1S/luciferase^+ cells, staged at day 8, injected with T cells on day 9, and treated with AP1903 (Rimiducid) on day 12 at the indicated doses. […] Blood, spleen, and bone marrow cells were analyzed by flow cytometry for the presence of huCD45^+ cells. The relative viability was determined by dividing the number of huCD45 cells by the number of msCD45 cells and normalizing to the average of huCD45/msCD45 in the no treatment group times, 100% per 1,500 bead events for each sample. […]

In series [3] the test system is cells. The conditions noted are these: cited from earlier work.
For series [4] the following is noted: cited from earlier work.

Read-outs that look alike come from different tables or passages of the source.

For the molecule `CC[C@H](C(=O)N1CCCC[C@H]1C(=O)O[C@H](CCc1ccc(OC)c(OC)c1)c1cccc(OCC(=O)NCCNC(=O)COc2cccc([C@@H](CCc3ccc(OC)c(OC)c3)OC(=O)[C@@H]3CCCCN3C(=O)[C@@H](CC)c3cc(OC)c(OC)c(OC)c3)c2)c1)c1cc(OC)c(OC)c(OC)c1` (relative stereo) [AP1903, 2-Piperidinecarboxylic acid, 1-[(2S)-1-oxo-2-(3,4,5-trimethoxyphenyl)butyl]-, 1,2-ethanediylbis[imino (2-oxo-2,1-ethanediyl)oxy-3,1-phenylene[(1R)-3-(3,4-dimethoxyphenyl)propylidene]]ester, [2S-[1(R*),2R*[S*[S*[1(R*),2R*]]]]]-(9C1)], the “amount needed for effective signaling, converted to dose” value in the series with cells [1] is 0.016 to 1.6 µg/kg. For the same molecule, the “amount needed for effective signaling, converted to mass concentration” value in the series with cells [1] is 16 to 160 µg/L. For the same molecule, the “lowest concentration of the study at which apoptosis is induced” value with Human pan T-cells stood at 0.1 nM. The “killing of cells comprising P-BCMA-101 in vivo” value in series [2] was “highly efficient killing”. The “amount needed in vitro for effective signaling of cells” value in the series on cells [3] is 10 to 100 nM. Moreover, the “plasma levels versus dose” value in series [4] (0.01, 0.05, 0.1, 0.5 and 1.0 mg/kg) is “directly proportional to dose”. Also, the “plasma level as % of maximal concentration” value in series [4] (0.5 hours post-dose) is “approximately 18%”; in series [4] (2 hours post-dose), approximately 7%; in series [4] (10 hours post-dose), approximately 1%. For the same molecule, in series [4] (Phase I study), the well-tolerated dose entry was “up to 1 mg/kg”. In series [4] (all dose levels 0.01-1.0 mg/kg, single dose IV over 2 hours), the safety and tolerability result was “safe and well tolerated at all dose levels”. In addition, the pharmacokinetic profile result in series [4] (healthy volunteers) is on record as “favorable pharmacokinetic profile”. Also, the “mean Cmax” value in series [4] (over the 0.01-1.0 mg/kg dose range, IV infusion over 2 hours, 24 healthy volunteers) is 10 to 1275 ng/mL.
